Source: paper PMC6792352, “Limited Chemical Structural Diversity Found to Modulate Thyroid Hormone Receptor in the Tox21 Chemical Library” (Environmental Health Perspectives, 2019)
Structures can show the parent of a compound that is named as a salt.

Test: in vitro
Conditions: rat, gh3-tre-luc cells

| Structure (SMILES) | CC50 at 24 h (AC50 (uM) modified / 1000) | also measured |
| --- | --- | --- |
| CC(=O)O[C@H]1C[C@@]2(C)[C@@H](C[C@@H](O)[C@H]3[C@@]4(C)CC[C@@H](O)[C@@H](C)[C@@H]4CC[C@@]32C)/C1=C(\CCC=C(C)C)C(=O)O [Fusidate sodium] | > 50 µM | – |
| Fc1ccc(C(OCCN2CCN(CCCc3ccccc3)CC2)c2ccc(F)cc2)cc1 [GBR 12909 dihydrochloride] | 8.65 µM | – |
| COc1ccccc1N1CCN(CCCCNC(=O)c2ccc(-c3ccc(C(C)=O)cc3)cc2)CC1 [GR 103691] | > 50 µM | – |
| N#Cc1ccc(N(CC(N)=O)CC(F)(F)F)cc1C(F)(F)F [GSK232420A] | – | CC50 at 24 h (AC50 (uM) modified / 1000, Tox21_110001=Tox21_300220, viability, 1 nM T3 present, 24 h): > 90 µM |
| CCN(C(=O)c1cc(C)cc(OC[C@H](C)Nc2ccncc2)c1)C(C)C [GW473178E methyl benzene sulphonic acid] | > 60 µM | – |
| NCC1(CC(=O)O)CCCCC1 [Gabapentin] | > 20 µM | – |
| CCOC(=O)c1ccc(OC(=O)CCCCCNC(=N)N)cc1 [Gabexate mesilate] | > 20 µM | – |
| Oc1noc2c1CCNC2 [Gaboxadol] | > 50 µM | – |
| N[C@@H](C=O)[C@@H](O)[C@@H](O)[C@H](O)CO [Galactosamine hydrochloride] | > 90 µM | – |
| O=C[C@H](O)[C@@H](O)[C@@H](O)[C@H](O)CO [Galactose] | > 50 µM | – |
| COc1ccc2c3c1O[C@H]1C[C@@H](O)C=C[C@@]31CCN(C)C2 [Galanthamine] | > 50 µM | – |
| CC[N+](CC)(CC)CCOc1cccc(OCC[N+](CC)(CC)CC)c1OCC[N+](CC)(CC)CC [Gallamine triethiodide] | > 50 µM | – |
| O=C(O)c1cc(O)c(O)c(O)c1 [Gallic acid] | 90.1 µM | – |
| COc1ccc(CCN(C)CCCC(C#N)(c2cc(OC)c(OC)c(OC)c2)C(C)C)cc1OC (stereo not drawn) [Gallopamil hydrochloride] | 21 µM | – |
| CCCCC/C=C\C/C=C\C/C=C\CCCCC(=O)O [Gamolenic acid] | > 50 µM | – |
| CC(=O)[C@H]1CC[C@H]2[C@@H]3CC[C@H]4C[C@](C)(O)CC[C@]4(C)[C@H]3CC[C@]12C [Ganaxolone] | – | CC50 at 24 h (AC50 (uM) modified / 1000, Tox21_110001=Tox21_112264, viability, 1 nM T3 present, 24 h): > 50 µM |
| Nc1nc(O)c2ncn(COC(CO)CO)c2n1 [Ganciclovir] | > 20 µM | – |

| Structure (SMILES) | CC50 at 24 h (AC50 (uM) modified / 1000) | also measured |
| --- | --- | --- |
| C[C@H]1NCc2cc(-c3ccc4c(=O)c(C(=O)O)cn(C5CC5)c4c3OC(F)F)ccc21 [Garenoxacin mesylate hydrate] | > 50 µM | – |
| COc1c(N2CCNC(C)C2)c(F)cc2c(=O)c(C(=O)O)cn(C3CC3)c12 (stereo not drawn) [Gatifloxacin] | > 50 µM | – |
| CC(C)=CCC/C(C)=C/CC/C(C)=C/CCC(=O)OC/C=C(\C)CCC=C(C)C [Gefarnate] | > 50 µM | – |
| COc1cc2ncnc(Nc3ccc(F)c(Cl)c3)c2cc1OCCCN1CCOCC1 [Gefitinib] | 8.92 µM | – |
| Cc1cc(=O)c2c(O)c3c(O)cc(=O)c4c3c3c(cc(O)c1c23)C(C)(C)C=4O [Geliomycin] | 0.889 µM | – |
| Nc1ccn([C@@H]2O[C@H](CO)[C@@H](O)C2(F)F)c(=O)n1 [Gemcitabine hydrochloride] | 0.153 µM | – |
| Cc1ccc(C)c(OCCCC(C)(C)C(=O)O)c1 [Gemfibrozil] | > 90 µM | – |
| CO/N=C1\CN(c2nc3c(cc2F)c(=O)c(C(=O)O)cn3C2CC2)CC1CN (stereo not drawn) [Gemifloxacin mesylate] | > 50 µM | – |
| CC(C)=CCC/C(C)=C/C(=O)O [Geranic acid] | > 90 µM | – |
| CC(C)=CCC/C(C)=C/CO [Geraniol] | > 90 µM | – |
| CC(=O)OC/C=C(\C)CCC=C(C)C [Geranyl acetate] | > 90 µM | – |
| CCCC(=O)OC/C=C(\C)CCC=C(C)C [Geranyl butyrate] | > 90 µM | – |
| C/C=C(\C)C(=O)OC/C=C(\C)CCC=C(C)C [Geranyl tiglate] | > 90 µM | – |
| C#C[C@]1(O)C=C[C@H]2[C@@H]3CCC4=CC(=O)CC[C@@H]4[C@H]3CC[C@@]21CC [Gestodene] | > 50 µM | – |
| C#C[C@]1(O)CC[C@H]2[C@@H]3CCC4=CC(=O)CCC4=C3C=C[C@@]21CC [Gestrinone] | > 50 µM | – |
| C=C1C[C@]23C[C@@]1(O)CC[C@H]2[C@@]12C=C[C@H](O)[C@@](C)(C(=O)O1)[C@H]2[C@@H]3C(=O)O [Gibberellic acid] | > 90 µM | – |
